Laboratory results from patent publication US11420922B2, “Hydroxylated tropolone inhibitors of nucleotidyl transferases in herpesvirus and Hepatitis B and uses therefor” (Saint Louis University, priority 2015, dated 2022).
Where two headings read alike, the source gives them in different places.

Key:
[1] = system: HSV-1; assay: Anti-HSV-1 replication assay in Vero cells, titers by plaque assay; type: cell-based, herpes simplex virus 1; details: Human alphaherpesvirus 1, Vero; for log reduction at 5 µM / log reduction at 50 µM: 24 h; for log reduction at 5 µM: read-out: HSV-1 Log suppression 5 μM; for log reduction at 50 µM: read-out: HSV-1 Log suppression 50 μM; for log reduction at 1.5 µM: read-out: HSV-1 Log suppression 1.5 μM
Protocol: Vero cells were maintained in Dulbecco's modified Eagle's medium (DMEM) containing 3% newborn calf serum, 3% bovine growth serum, 2 mM L-glutamine and 100 IU/mL penicillin and 0.1 mg/mL streptomycin (P/S). HSV-1 #6 and HSV-2 #1 are de-identified clinical isolates from the Saint Louis University Hospital. Stocks were prepared after a single passage in cell culture and were titered by standard plaque assay (Knipe and Spang, 1982). Wild-type HSV-2 used in FIG. 3 was laboratory strain 333. […] Virus stocks were grown and titered on Vero cells (Morrison and Knipe, 1996).
(§1) Compounds to be screened were diluted in PBS supplemented to contain 2% newborn calf serum and 1% glutamine, and added in 100 μL volume to confluent cell monolayers in 24-well cluster plates. Immediately thereafter HSV-1 and HSV-2, diluted in the supplemented PBS medium, were added to the wells in 50 μl volume such that the final concentration of compound was 50 μM and 5 μM and the multiplicity of infection was 0.1. The plates were incubated at 37° C. for 1 hour and then virus-containing inoculum was removed and the wells were washed once in PBS. Compounds, diluted to 50 μM and 5 μM in DMEM supplemented to contain 2% newborn calf serum and 1% each penicillin/streptomycin, were added at 0.5 mL/well. Plates were incubated at 37° C. an additional 23 hr, and then the plates were visually inspected through a phase contrast microscope for cytopathic effect, and for toxic effect. […] The entire contents of each well were collected by scraping. Samples were frozen at −80° C., and then subsequently thawed, sonicated, and infectious virus titer was determined by standard plaque assay on Vero cell monolayers. Because the compounds were dissolved at 10 mM in 100% DMSO, equivalent dilutions of DMSO were added to additional wells as a control for effects of the diluent. Each experiment was repeated once. EC50 values were determined as above except that serial dilutions of the compound to be tested were prepared starting at 50 μM. The inhibitory values were calculated by non-linear curve-fitting in GraphPad Prism.

[2] = system: HSV-2; assay: Anti-HSV-2 replication assay in Vero cells, titers by plaque assay; type: cell-based, herpes simplex virus 2; details: for log reduction at 5 µM / log reduction at 50 µM: Human alphaherpesvirus 2, Vero, 24 h; for log reduction at 5 µM: read-out: HSV-2 Log suppression 5 μM; for log reduction at 50 µM: read-out: HSV-2 Log suppression 50 μM
[3] = system: HSV; assay: Anti-HSV SAR summary, HSV type not separated; type: cell-based, herpes simplex virus; details: grouped by activity at 50, 5 and 0.5 μM
Protocol: as §1
A series of over 20 synthetic αHTs were synthesized and tested to both confirm the initial SAR, and to provide leads for further optimization pursuits (FIG. 5). […] Specifically, biphenyl-containing molecules #118 and 115 inhibit HSV replication by up to 4 log10 at 200 nM. The increased potency over close analogs #111 and 113 confirmed the importance of added lipophilicity.

[4] = system: HBV; assay: HBV replication assay in HepDES19 cells; type: cell-based; details: Hepatitis B virus; HepDES19 cells; read-out: EC50 (HBV assay)
Protocol: HBV replication assay. Inhibition of HBV replication was measured in HepDES19 cells as previously described (Cai, et al., 2014). Cells were seeded into 6-well plates and incubated in DMEM/F12, 10% fetal bovine serum (FBS), 1% penicillin/streptomycin (P/S) with 1 μg/ml tetracycline. Tetracycline was withdrawn after 24 hours. The test compound was applied to duplicate wells 48 hours later in medium containing a final DMSO concentration of 1%, and medium containing the compound was refreshed daily for the following two days. Cells were harvested and non-encapsidated nucleic acids were digested with micrococcal nuclease (New England Biolabs). HBV DNA was purified from capsids using QIAamp Cador Pathogen Mini Kit (Qiagen) with proteinase K incubation overnight at 37° C. TaqMan PCR was performed for 40 cycles at an annealing temperature of 60° C. Primers and probe (IDT Inc.) for the plus-polarity strand were: 5′[…]3′ (SEQ ID NO: 1); 5′[…]3′ (SEQ ID NO: 2); 5′/56-FAM/[…]/ZEN/[…]/3IABkFQ (SEQ ID NO: 3). Primers and probe for the minus-polarity strand were: 5′[…]3′ (SEQ ID NO: 4); 5′[…]3′ (SEQ ID NO: 5); 5′/56-FAM/[…]/ZEN/[…]/3IABkFQ (SEQ ID NO: 6).

[5] = Cytotoxicity reported with the HBV assay (Table 4); type: cell-based; details: human
Protocol: Qualitative assessments of cytotoxicity were done visually by inspecting the cells in the primary screening assays. For the quantitative assays, cells were plated in 96-well plates at 1.0×10^4 per well. The next day the compounds were added at 0.78 to 100 μM in a final concentration of 1% (v/v) DMSO, and the cells were incubated for 24 hours under conditions identical to those employed for the viral replication inhibition assays. Mitochondrial toxicity was measured by incubating the cells with 0.25 mg/mL thiazolyl blue tetrazolium bromide (MTT, Sigma Aldrich Chemical Co.), the cultures were incubated for 60 min, metabolites were solubilized in acidic isopropanol, and absorbance was read at 570 nm. CC50 values were calculated by non-linear curve fitting using GraphPad Prism.

[6] = 5 μM, moi 0.1, 24 h, vs DMSO, +/− are qualitative, key not given
[7] = 50 μM, moi 0.1, 24 h, vs DMSO, +/−/T are qualitative, key not given
[8] = hepatoma cells, read-out: CC50 (HBV assay table)

Compound: Nc1ccn(C[C@@H](CO)OCP(=O)(O)O)c(=O)n1 [CDV, Cidofovir, reference compound]
- log reduction at 5 µM [1, 6]: 0.77
- log reduction at 50 µM [1, 7]: 2.67
- log reduction at 5 µM [2, 6]: 0.38
- log reduction at 50 µM [2, 7]: 1.19

Compound: COC(=O)c1c(C)cc(O)c(=O)c(O)c1C(=O)OC [Compound 106]
- log reduction at 5 µM [1]: -0.07
- log reduction at 50 µM [1]: 4.11
- log reduction at 5 µM [2]: -0.55
- log reduction at 50 µM [2]: 2.87
- anti-HSV SAR group, in words [3]: weakest inhibitors
- EC50 [4]: 2.7 µM

Compound: COC(=O)c1c(CCl)cc(O)c(=O)c(O)c1C(=O)OC [Compound 107]
- CC50 at 24 h [5, 8]: 71 µM

Compound: COCc1cc(O)c(=O)c(O)c(C(=O)OC)c1C(=O)OC [Compound 108]
- log reduction at 5 µM [1]: 0
- log reduction at 5 µM [2]: 0
- anti-HSV SAR group, in words [3]: weakest inhibitors
- CC50 at 24 h [5, 8]: 81 µM

Compound: CCOC(=O)c1cc(O)c(=O)c(O)cc1C [Compound 109]
- log reduction at 5 µM [1]: 0.21
- log reduction at 50 µM [1]: 3.99
- log reduction at 5 µM [2]: -0.22
- log reduction at 50 µM [2]: 4.15
- anti-HSV SAR group, in words [3]: weakest inhibitors

Compound: Cc1cc(O)c(=O)c(O)cc1-c1ccc([N+](=O)[O-])cc1 [Compound 112]
- log reduction at 5 µM [1]: 0.02
- log reduction at 50 µM [1]: 5.25
- log reduction at 5 µM [2]: -0.4
- log reduction at 50 µM [2]: 3.2
- anti-HSV SAR group, in words [3]: weakest inhibitors
- EC50 [4]: 2.5 µM

Compound: Cc1cc(O)c(=O)c(O)cc1-c1ccc(Cl)cc1 [Compound 144]
- log reduction at 5 µM [1]: -0.34
- log reduction at 50 µM [1]: 3.83
- log reduction at 5 µM [2]: 0.65
- log reduction at 50 µM [2]: 5.18
- anti-HSV SAR group, in words [3]: weakest inhibitors

Compound: O=c1c(O)cccc2cc(O)c(O)c(O)c12 [Compound 195, purpurogallin]
- log reduction at 5 µM [1]: 0.17
- log reduction at 50 µM [1]: 0.2
- log reduction at 5 µM [2]: -0.04
- log reduction at 50 µM [2]: 0.11

Compound: Cc1ccc(O)c(=O)c(O)c1 [Compound 210]
- log reduction at 5 µM [1]: 4.32
- log reduction at 50 µM [1]: 4.56
- log reduction at 5 µM [2]: 4.04
- log reduction at 50 µM [2]: 5.55

Compound: Cc1cc(O)c(=O)c(O)cc1-c1cccc(-c2ccccc2)c1 [Compound 231]
- EC50 [4]: 10 µM
- CC50 at 24 h [5, 8]: 16 µM

Compound: Cc1cc(O)c(=O)c(O)cc1-c1cccc(-c2ccc3ccccc3c2)c1 [Compound 232]
- EC50 [4]: 9.6 µM
- CC50 at 24 h [5, 8]: 55 µM

Compound: Cc1cc(O)c(=O)c(O)cc1-c1ccc(-c2ccc3ccccc3c2)cc1 [Compound 233]
- log reduction at 1.5 µM [1]: 2.63

Compound: Cc1cc(O)c(=O)c(O)cc1-c1cccc(-c2cccc3ccccc23)c1 [Compound 234]
- log reduction at 1.5 µM [1]: 2.71

Compound: Cc1cc(O)c(=O)c(O)cc1-c1ccc(-c2cccc3ccccc23)cc1 [Compound 235]
- EC50 [4]: 5.2 µM
- CC50 at 24 h [5, 8]: 30 µM

Compound: Cc1cc(O)c(=O)c(O)cc1C(=O)c1cccc(-c2ccccc2)c1 [Compound 255]
- log reduction at 1.5 µM [1]: 5.02

Compound: Cc1cc(O)c(=O)c(O)cc1C(=O)c1ccc(-c2cccc3ccccc23)cc1 [Compound 256]
- log reduction at 1.5 µM [1]: 5.18

Compound: Cc1cc(O)c(=O)c(O)cc1C(=O)c1cccc(-c2cccc3ccccc23)c1 [Compound 257]
- log reduction at 1.5 µM [1]: 4.82
- EC50 [4]: 8.3 µM
- CC50 at 24 h [5, 8]: 32 µM

Compound: Cc1cc(O)c(=O)c(O)cc1C(=O)c1ccc(-c2ccc3ccccc3c2)cc1 [Compound 258]
- log reduction at 1.5 µM [1]: 5.04
- EC50 [4]: 8.8 µM
- CC50 at 24 h [5, 8]: 28 µM

Compound: Cc1cc(O)c(=O)c(O)cc1C(=O)c1cccc(-c2ccc3ccccc3c2)c1 [Compound 259]
- log reduction at 1.5 µM [1]: 5.05
- EC50 [4]: 2.8 µM
- CC50 at 24 h [5, 8]: 21 µM

Compound: Cc1cc(O)c(=O)c(O)cc1C(=O)c1ccc(-c2ccncc2)cc1 [Compound 260]
- log reduction at 1.5 µM [1]: 0.5

Compound: O=c1c(O)ccc(Br)cc1O [Compound 261]
- CC50 at 24 h [5, 8]: > 100 µM

Compound: O=c1c(O)ccc(-c2ccccc2)cc1O [Compound 262]
- CC50 at 24 h [5, 8]: 96 µM

Compound: O=c1c(O)ccc(-c2ccc(-c3ccccc3)cc2)cc1O [Compound 264]
- CC50 at 24 h [5, 8]: 28 µM

Compound: O=c1c(O)ccc(-c2ccco2)cc1O [Compound 265]
- CC50 at 24 h [5, 8]: 40 µM

Compound: O=c1c(O)ccc(-c2ccncc2)cc1O [Compound 266]
- CC50 at 24 h [5, 8]: 32 µM

Compound: O=c1c(O)ccc(-c2cnc3ccccc3c2)cc1O [Compound 267]
- CC50 at 24 h [5, 8]: 25 µM

Compound: COC(=O)c1c(C)cc(OC)c(=O)c(O)c1OC [Compound 269]
- log reduction at 5 µM [1]: 1.48
- log reduction at 50 µM [1]: 3.76
- log reduction at 1.5 µM [1]: 0.24
- HSV-2 Log suppression 1.5 μM ([2]; 1.5 μM): 4.04 log10
- log reduction at 50 µM [2]: 4.67
- CC50 at 24 h [5, 8]: > 100 µM

Compound: CCOC(=O)c1c(C)cc(O)c(=O)c(O)c1O [Compound 270]
- log reduction at 5 µM [1]: 5.97
- log reduction at 50 µM [1]: 6.47
- log reduction at 5 µM [2]: 6.32
- log reduction at 50 µM [2]: 6.9

Compound: O=C1OCc2cc(O)c(=O)c(O)c(O)c21 [Compound 271]
- log reduction at 5 µM [1]: 0.47
- log reduction at 50 µM [1]: 1.87
- log reduction at 1.5 µM [1]: 0.21
- log reduction at 5 µM [2]: 1.53
- log reduction at 50 µM [2]: 2.94

Compound: COC(=O)c1cc(O)c(=O)c(OC)cc1C [Compound 273]
- log reduction at 5 µM [1]: 5.75
- log reduction at 50 µM [1]: 6.05
- log reduction at 1.5 µM [1]: 2.12
- log reduction at 5 µM [2]: 6.32
- log reduction at 50 µM [2]: 6.9

Compound: COC(=O)c1cc(O)c(=O)c(O)cc1C [Compound 274]
- log reduction at 1.5 µM [1]: 0.59
- CC50 at 24 h [5, 8]: > 100 µM

Compound: COC(=O)c1c2c(cc(O)c(=O)c1O)COC2=O [Compound 280]
- CC50 at 24 h [5]: 32 µM
